This assay has as its target T1, hPARG (Homo sapiens, UniProt Q86W56).
T1 construct: made in house; host or cells: E. coli
The experiment in a line: PARG enzymatic activity assay (HTRF). The class given is biochemical. The settings on record: C-terminal His6-tag hPARG 65 pM, biotinylated-NAD ribosylated PARP1 substrate 8 nM. Here is the method: HTRF assay was used to measure the ability of compounds to inhibit the activity of […] in vitro. C-terminal His6—tag PARG expressed in E. coli was purified and stored at −80° C. in aliquots. Assay measurements were performed with 1×buffer comprising 50 mM Tris pH 7.4, 0.1 mg/mL BSA, 3 mM EDTA, 0.4 mM EGTA, 1 mM DTT, 50 mM KCl and 0.01% Tween 20. Compounds dissolved in DMSO were plated into a 384-well assay plate (PerkinElmer, Catalog #: 6008280) in duplicate using a dispenser (Labcyte, Echo 665), and tested on a 10-point 4-fold serial dilution. Add 5 μL Enzyme mix [hPARG (C-terminal His6—tag, 4.2 μM), 65 pM final] to the test wells. The plates were covered and left to incubate for 60 minutes at RT before the addition of 5 μL substrate mix [biotinylated-NAD ribosylated PARP1 (6.1 μM), 8 nM final] to initiate reaction. After incubating 10 minutes at RT, add 2.5 μL Streptavidin-Eu cryptate (Cisbio, Catalog #: 610SAKLA) and 2.5 μL Mab anti 6HIS-XL665 (Cisbio, Catalog #: 61HISXLA) to the plate, and incubate for 60 minutes at RT. Read on a multimode plate reader (PerkinElmer, Envision 2015) in time-resolved fluorescence (TRF) mode, with excitation at 337 nm and emission at both 620 nm and 665 nm. Average HTRF signal of high control (Wells with 1% DMSO) was calculated and as Vehicle Control (VC). Average HTRF signal of low control (no Enzyme) was calculated and as Positive control (PC).
IC50 values were determined by fitting the data to the standard 4 parameters with Hill Slope using GraphPad Prism software.

In general, IC50 refers to the midpoint of a concentration-inhibition curve. A high value points to weaker potency in that assay.

Molecules are shown by their SMILES.

T1 sequence (Q86W56 whole entry): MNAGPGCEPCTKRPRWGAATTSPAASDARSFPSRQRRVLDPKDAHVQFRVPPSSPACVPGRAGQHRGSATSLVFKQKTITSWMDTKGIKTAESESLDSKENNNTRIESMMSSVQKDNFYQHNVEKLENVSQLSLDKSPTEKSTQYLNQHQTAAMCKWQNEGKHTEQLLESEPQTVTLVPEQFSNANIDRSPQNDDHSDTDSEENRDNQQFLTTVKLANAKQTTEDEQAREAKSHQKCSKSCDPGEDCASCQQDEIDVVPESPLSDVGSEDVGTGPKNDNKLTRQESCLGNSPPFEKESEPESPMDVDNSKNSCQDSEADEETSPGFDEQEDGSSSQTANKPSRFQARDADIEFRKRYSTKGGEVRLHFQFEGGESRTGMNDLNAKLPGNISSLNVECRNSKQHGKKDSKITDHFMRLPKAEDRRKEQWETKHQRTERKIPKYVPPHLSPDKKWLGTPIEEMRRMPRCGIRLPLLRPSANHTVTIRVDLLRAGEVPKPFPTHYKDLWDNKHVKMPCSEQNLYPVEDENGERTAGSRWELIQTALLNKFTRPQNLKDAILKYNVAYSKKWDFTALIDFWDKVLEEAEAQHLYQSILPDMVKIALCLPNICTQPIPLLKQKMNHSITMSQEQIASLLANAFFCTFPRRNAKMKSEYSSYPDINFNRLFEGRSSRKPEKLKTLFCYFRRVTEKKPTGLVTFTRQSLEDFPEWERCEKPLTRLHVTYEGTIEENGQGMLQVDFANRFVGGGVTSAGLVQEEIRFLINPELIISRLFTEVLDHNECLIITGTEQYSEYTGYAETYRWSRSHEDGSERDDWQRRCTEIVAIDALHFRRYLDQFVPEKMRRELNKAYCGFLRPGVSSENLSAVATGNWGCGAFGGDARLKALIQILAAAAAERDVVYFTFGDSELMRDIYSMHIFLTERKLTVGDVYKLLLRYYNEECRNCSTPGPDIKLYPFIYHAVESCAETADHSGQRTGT

As for `CCN(CC)[C@H]1CCN(c2ncnc3c2c2ccc(S(=O)(=O)NC4(C#N)CC4)cc2n3-c2nnc(C(F)F)s2)C[C@@H]1F` [Example 32, N-(1-Cyanocyclopropyl)-4-((3S,4S)-4-(diethylamino)-3-fluoropiperidin-1-yl)-9-(5-(difluoromethyl)-1,3,4-thiadiazol-2-yl)-9H-pyrimido[4,5-b]indole-7-sulfonamide], the IC50 was not above 100 nM.

The compound `CCN(CC)C1CCN(c2ncnc3c2c2ccc(S(=O)(=O)NC4(C#N)CC4)cc2n3-c2nnc(C(F)F)s2)CC1` [Example 28, N-(1-Cyanocyclopropyl)-4-(4-(diethylamino)piperidin-1-yl)-9-(5-(difluoromethyl)-1,3,4-thiadiazol-2-yl)-9H-pyrimido[4,5-b]indole-7-sulfonamide] yielded a 50% inhibitory concentration (IC50) not above 100 nM.

On to `N#CC1(NS(=O)(=O)c2ccc3c4c(O[C@@H]5CCOC5)ncnc4n(-c4nnc(C(F)F)s4)c3c2)CC1` [Example 8, (R)-N-(1-Cyanocyclopropyl)-9-(5-(difluoromethyl)-1,3,4-thiadiazol-2-yl)-4-((tetrahydrofuran-3-yl)oxy)-9H-pyrimido[4,5-b]indole-7-sulfonamide], for which the IC50 was not above 100 nM.

As to `N#CC1(NS(=O)(=O)c2ccc3c4c(N5CCn6ccnc6C5)ncnc4n(-c4nnc(C(F)F)s4)c3c2)CC1` [Example 44, N-(1-Cyanocyclopropyl)-9-(5-(difluoromethyl)-1,3,4-thiadiazol-2-yl)-4-(5,6-dihydroimidazo[1,2-a]pyrazin-7(8H)-yl)-9H-pyrimido[4,5-b]indole-7-sulfonamide], the IC50 was not above 100 nM.

`N#CC1(NS(=O)(=O)c2ccc3c4c(OCC(=O)N5CCOCC5)ncnc4n(-c4nnc(C(F)F)s4)c3c2)CC1` [Example 11, N-(1-Cyanocyclopropyl)-9-(5-(difluoromethyl)-1,3,4-thiadiazol-2-yl)-4-(2-morpholino-2-oxoethoxy)-9H-pyrimido[4,5-b]indole-7-sulfonamide] showed an IC50 not above 100 nM.

`CC(C)(O)CCc1ncnc2c1c1ccc(S(=O)(=O)NC3(C#N)CC3)cc1n2-c1nnc(C(F)F)s1` [Example 89, N-(1-Cyanocyclopropyl)-9-(5-(difluoromethyl)-1,3,4-thiadiazol-2-yl)-4-(3-hydroxy-3-methylbutyl)-9H-pyrimido[4,5-b]indole-7-sulfonamide] came in with a concentration for half-maximal inhibition (IC50) of 100 to 1000 nM.

The compound `CCN(CC)C1C[C@H]2C[C@@H]1CN2c1ncnc2c1c1ccc(S(=O)(=O)NC3(C#N)CC3)cc1n2-c1nnc(C(F)F)s1` (stereo partly drawn) [Example 39, N-(1-Cyanocyclopropyl)-4-((1R,4R)-5-(diethylamino)-2-azabicyclo[2.2.1]heptan-2-yl)-9-(5-(difluoromethyl)-1,3,4-thiadiazol-2-yl)-9H-pyrimido[4,5-b]indole-7-sulfonamide] registered an IC50 not above 100 nM.

In the case of `CCN(CC)[C@@H]1CCN(c2ncnc3c2c2ccc(S(=O)(=O)NC4(C#N)CC4)cc2n3-c2nnc(C(F)F)s2)CC1(F)F` [Example 51, (R)-N-(1-Cyanocyclopropyl)-4-(4-(diethylamino)-3,3-difluoropiperidin-1-yl)-9-(5-(difluoromethyl)-1,3,4-thiadiazol-2-yl)-9H-pyrimido[4,5-b]indole-7-sulfonamide], the concentration for half-maximal inhibition (IC50) is not above 100 nM.

The compound `CN(C)C(=O)COc1ncnc2c1c1ccc(S(=O)(=O)NC3(C#N)CC3)cc1n2-c1nnc(C(F)F)s1` [Example 6, 2-((7-(N-(1-Cyanocyclopropyl)sulfamoyl)-9-(5-(difluoromethyl)-1,3,4-thiadiazol-2-yl)-9H-pyrimido[4,5-b]indol-4-yl)oxy)-N,N-dimethylacetamide] yielded a half-inhibitory concentration (IC50) of 100 to 1000 nM.

As for `C[C@@H]1CN(c2ncnc3c2c2ccc(S(=O)(=O)NC4(C#N)CC4)cc2n3-c2nnc(C(F)F)s2)C[C@H](C)N1C` [Example 41, N-(1-Cyanocyclopropyl)-9-(5-(difluoromethyl)-1,3,4-thiadiazol-2-yl)-4-((3R,5S)-3,4,5-trimethylpiperazin-1-yl)-9H-pyrimido[4,5-b]indole-7-sulfonamide], the 50% inhibitory concentration (IC50) is not above 100 nM.

The compound `N#CC1(NS(=O)(=O)c2ccc3c4c(OCCCCN5CCOCC5)ncnc4n(-c4nnc(C(F)F)s4)c3c2)CC1` [Example 3, N-(1-Cyanocyclopropyl)-9-(5-(difluoromethyl)-1,3,4-thiadiazol-2-yl)-4-(4-morpholinobutoxy)-9H-pyrimido[4,5-b]indole-7-sulfonamide] displayed an IC50 not above 100 nM.

For `N#CC1(NS(=O)(=O)c2ccc3c4c(OCCN5CCOCC5)ncnc4n(-c4nnc(C(F)F)s4)c3c2)CC1` [Example 1, N-(1-Cyanocyclopropyl)-9-(5-(difluoromethyl)-1,3,4-thiadiazol-2-yl)-4-(2-morpholinoethoxy)-9H-pyrimido[4,5-b]indole-7-sulfonamide], the IC50 was not above 100 nM.

`N#CC1(NS(=O)(=O)c2ccc3c4c(N5CCn6cnnc6C5)ncnc4n(-c4nnc(C(F)F)s4)c3c2)CC1` [Example 46, N-(1-Cyanocyclopropyl)-9-(5-(difluoromethyl)-1,3,4-thiadiazol-2-yl)-4-(5,6-dihydro-[1,2,4]triazolo[4,3-a]pyrazin-7(8H)-yl)-9H-pyrimido[4,5-b]indole-7-sulfonamide] had a half-maximal inhibitory concentration (IC50) not above 100 nM.

Compound `N#CC1(NS(=O)(=O)c2ccc3c4c(OCC5CCOC5)ncnc4n(-c4nnc(C(F)F)s4)c3c2)CC1` (centres unmarked) [Example 9, N-(1-Cyanocyclopropyl)-9-(5-(difluoromethyl)-1,3,4-thiadiazol-2-yl)-4-((tetrahydrofuran-3-yl)methoxy)-9H-pyrimido[4,5-b]indole-7-sulfonamide] displayed an IC50 not above 100 nM.

Compound `N#CC1(NS(=O)(=O)c2ccc3c4c(OCC5COCCN5)ncnc4n(-c4nnc(C(F)F)s4)c3c2)CC1` (centres unmarked) [Example 92, N-(1-cyanocyclopropyl)-9-(5-(difluoromethyl)-1,3,4-thiadiazol-2-yl)-4-(morpholin-3-ylmethoxy)-9H-pyrimido[4,5-b]indole-7-sulfonamide] came in with a half-inhibitory concentration (IC50) of 100 to 1000 nM.

Consider `N#CC1(NS(=O)(=O)c2ccc3c4c(CCCN5CCOCC5)ncnc4n(-c4nnc(C(F)F)s4)c3c2)CC1` [Example 87, N-(1-Cyanocyclopropyl)-9-(5-(difluoromethyl)-1,3,4-thiadiazol-2-yl)-4-(3-morpholinopropyl)-9H-pyrimido[4,5-b]indole-7-sulfonamide], for which the IC50 was not above 100 nM.

`CN(CC1CCCN1C)c1ncnc2c1c1ccc(S(=O)(=O)NC3(C#N)CC3)cc1n2-c1nnc(C(F)F)s1` (centres unmarked) [Example 80, N-(1-Cyanocyclopropyl)-9-(5-(difluoromethyl)-1,3,4-thiadiazol-2-yl)-4-(methyl((1-methylpyrrolidin-2-yl)methyl)amino)-9H-pyrimido[4,5-b]indole-7-sulfonamide] came in with an IC50 not above 100 nM.

`C[C@H]1CN(c2ncnc3c2c2ccc(S(=O)(=O)NC4(C#N)CC4)cc2n3-c2nnc(C(F)F)s2)C[C@H](C)N1` [Example 94, N-(1-Cyanocyclopropyl)-9-(5-(difluoromethyl)-1,3,4-thiadiazol-2-yl)-4-((3S,5S)-3,5-dimethylpiperazin-1-yl)-9H-pyrimido[4,5-b]indole-7-sulfonamide] gave an IC50 not above 100 nM.

`N#CC1(NS(=O)(=O)c2ccc3c4c(N5CCn6cncc6C5)ncnc4n(-c4nnc(C(F)F)s4)c3c2)CC1` [Example 45, N-(1-Cyanocyclopropyl)-9-(5-(difluoromethyl)-1,3,4-thiadiazol-2-yl)-4-(5,6-dihydroimidazo[1,5-a]pyrazin-7(8H)-yl)-9H-pyrimido[4,5-b]indole-7-sulfonamide] displayed a half-maximal inhibitory concentration (IC50) not above 100 nM.

`CN(CCO)c1ncnc2c1c1ccc(S(=O)(=O)NC3(C#N)CC3)cc1n2-c1nnc(C(F)F)s1` [Example 63, N-(1-Cyanocyclopropyl)-9-(5-(difluoromethyl)-1,3,4-thiadiazol-2-yl)-4-((2-hydroxyethyl)(methyl)amino)-9H-pyrimido[4,5-b]indole-7-sulfonamide]: the IC50 is not above 100 nM.

Take `CCN(CC)CCOc1ncnc2c1c1ccc(S(=O)(=O)NC3(C#N)CC3)cc1n2-c1nnc(C(F)F)s1` [Example 10, N-(1-Cyanocyclopropyl)-4-(2-(diethylamino)ethoxy)-9-(5-(difluoromethyl)-1,3,4-thiadiazol-2-yl)-9H-pyrimido[4,5-b]indole-7-sulfonamide]: the 50% inhibitory concentration (IC50) was not above 100 nM.

As to `CN(CCCN1CCOCC1)c1ncnc2c1c1ccc(S(=O)(=O)NC3(C#N)CC3)cc1n2-c1nnc(C(F)F)s1` [Example 17, N-(1-Cyanocyclopropyl)-9-(5-(difluoromethyl)-1,3,4-thiadiazol-2-yl)-4-(methyl(3-morpholinopropyl)amino)-9H-pyrimido[4,5-b]indole-7-sulfonamide], the half-maximal inhibitory concentration (IC50) is not above 100 nM.

Turning to `CN(C)CC1CN(c2ncnc3c2c2ccc(S(=O)(=O)NC4(C#N)CC4)cc2n3-c2nnc(C(F)F)s2)CCO1` (centres unmarked) [Example 37, N-(1-Cyanocyclopropyl)-9-(5-(difluoromethyl)-1,3,4-thiadiazol-2-yl)-4-(2-((dimethylamino)methyl)morpholino)-9H-pyrimido[4,5-b]indole-7-sulfonamide], the IC50 is not above 100 nM.

Values taken from patent US20260049088A1, “TRICYCLIC HETEROCYCLIC DERIVATIVES, COMPOSITIONS AND USES THEREOF” (Danatlas Pharmaceuticals Co., Ltd., priority 2023, published 2026).
